According to US3947569A, “Process for preparing the releasing hormone of luteinizing hormone (LH) and of follicle stimulating hormone (FSH), salts and compositions thereof, and intermediates therefor” (American Home Products Corporation, priority 1974, dated 1976):

Key:
LH and FSH release [1] = assay: bioassays / biological equivalence to the natural hormone (not specified further)
LH and FSH release [2] = assay: LH- and FSH-releasing activity tested in the radioimmunoassay of Niswender et al.; assay type: in vivo; conditions: acid addition salt
Excerpt: (§1) Exp. Biol. Med., 128, 807 (1968).

ovulation [3] = assay: modification of the ovulation induction assay in the rat (Arimura et al., Endocrinology 80, 515); assay type: in vivo
Excerpt: as §1

ovulation [4] = assay: induction of ovulation in the hamster (Arimura et al., Science 174, 511); assay type: in vivo
Excerpt: as §1

Compound | pharmacological / biological equivalence (LH and FSH release [1]; compared with the decapeptide or the natural hormone) | potency in bioassays compared with the natural product (LH and FSH release [1]; hydrochloride salt) | LH- and FSH-releasing activity compared with the natural hormone (LH and FSH release [2]) | activity in induction of ovulation compared with the natural hormone (ovulation [3]; rat) | time to ovulation following administration (ovulation [3]; rodents such as rats or hamsters: rat) [h] | activity in induction of ovulation compared with the natural hormone (ovulation [4]; hamster) | time to ovulation following administration (ovulation [4]; rodents such as rats or hamsters: hamster) [h]
5-Oxo-L-Prolyl-L-Histidyl-L-Tryptophyl-L-Seryl-L-Tyrosylglycyl-L-Leucyl-L-Arginyl-L-Prolylglycinamide (I) Zinc Complex [Example 19] | pharmacologically equivalent to the decapeptide |  |  |  |  |  | 
CC(C)C[C@H](NC(=O)CNC(=O)[C@H](Cc1ccc(O)cc1)NC(=O)[C@H](CO)NC(=O)[C@H](Cc1c[nH]c2ccccc12)NC(=O)[C@H](Cc1c[nH]cn1)NC(=O)[C@@H]1CCC(=O)N1)C(=O)N[C@@H](CCCNC(=N)N)C(=O)N1CCC[C@H]1C(=O)NCC(N)=O [I, 5-oxo-L-prolyl-L-histidyl-L-tryptophyl-L-seryl-L-tyrosylglycyl-L-leucyl-L-arginyl-L-prolylglycinamide] |  | as potent as the latter | as active as the natural hormone | equally active | ≤ 18 | equally active | ≤ 18
